Here are results for one molecule from patent publication US10624887B2, “Compositions of (-)-17-(cyclobutylmethyl)morphinan-3,14,-diol” (priority 2010, dated 2020).

Molecules are shown by their SMILES. Read-outs that look alike come from different tables or passages of the source.

Series [1] has as its system paclitaxel induced painful neuropathy. Nature of the series: Paclitaxel induced painful neuropathy, cold allodynia (acetone drop test). It is filed as in vivo, Wistar rats. The note with it: paclitaxel neuropathic rats. The text has this:
The aim of this study was to evaluate the effect of oral administration of butorphanol in rats with paclitaxel induced painful neuropathy. The primary measurements were made mechanical and thermal allodynia designed to detect effects of the treatment(s) on neuropathic pain.
(§1) Wistar rats weighing 250±20 g were maintained on standard laboratory diet and having free access to tap water ad lib were employed in the present study. They were housed in the animal house and were exposed to 12 hr cycle of light and dark. The experiments were conducted in a semi-sound proof laboratory. Care of the animals was in accordance with guidelines for experimentation on animals.
Rats were injected on five alternate days (day 4, 6, 8, 10 & 12) with paclitaxel (2 mg/kg i.p.) using an injection volume of 2 ml/kg. Thus, the cumulative dose of paclitaxel was computed to be 10 mg/kg. Tests took place ten days after the last injection and continued over the next three weeks. […]
(§2) For the assessment of cold allodynia, which was stable for 3 weeks, the rats were placed on a wire mesh covered with a plastic dome and were allowed to habituate until the exploratory behavior diminished. Cold allodynia was measured as the number of foot withdrawal responses after application of stimuli to the plantar surface of the paw. […] Acetone was applied two times (once every 5 min) on the left paw, and the number of reactions (shaking, tapping, or licking) was counted during 30 sec. […] The score was expressed as accumulated numbers of reactions over the trials and determined before and 30 and 60 min after administration of the test drugs. Each individual test was expressed as a percentage of maximum possible effect (% MPE): […]
(§3) MPE (%) at 30 min time point was employed as a quantitative measure of the analgesic effect of the test drugs.
The anti-nociceptive effect was plotted assessed having time (relative to dosing time point) on the x-axis and percent maximum possible effect (% MPE) on the y-axis. The results were expressed as mean±standard error of means (S.E.M.). […]

The conditions of series [2]: intranasal, single dose, cited from earlier work.
The conditions of series [3]: cited from earlier work.
The test system of series [4] is streptozotocin (STZ) induced diabetes neuropathy. The experiment in a line: Streptozotocin induced diabetic neuropathy, cold allodynia (acetone drop test). The series is classed as in vivo, Wistar rats. The note with it: STZ diabetic neuropathic rats. The procedure: The aim of this study was to evaluate the effect of oral administration of butorphanol in rats with streptozotocin (STZ) induced diabetes neuropathy. A single injection of streptozotocin (STZ) (40-70 mg/kg, i.p.) was used to induce diabetes in rats. The primary measurements were made mechanical and thermal allodynia designed to detect effects of the treatment(s) on neuropathic pain.
as §1
The STZ-induced diabetes model was adapted from Arison et al (1967).
On the experimental day 1 all rats were fasted 6-8 hrs prior to STZ treatment Immediately prior to the injection, STZ was dissolved in 50 Mm sodium citrate buffer (pH 4.5) to a final concentration of 10 mg/ml. […]
as §2, §3
The anti-nociceptive effect was plotted assessed having time (relative to dosing time point) on the x-axis and percent maximum possible effect (% MPE) on the y-axis. […]

Series [5] in a line: Tail flick test, intra-gastric, intra-ileal and intra-colonic butorphanol. It is filed as in vivo. An excerpt:
FIG. 13: Time-effect curves depicting antinociceptive effect of intra-gastric, intra-ileal and intra-colonic butorphanol in the tail flick test. The percent maximum possible effect (% MPE) is plotted versus time.
FIG. 14: Time-effect curves depicting antinociceptive effect of intra-gastric, intra-ileal and intra-colonic butorphanol in the tail flick test. The percent maximum possible effect (% MPE) is plotted versus time.
A general note: Hot-plate and tail-flick tests time the reaction to a heat stimulus.

Take `Oc1ccc2c(c1)[C@@]13CCCC[C@@]1(O)[C@@H](C2)N(CC1CCC1)CC3` [butorphanol, (−)17-(Cyclobutylmethyl)morphinan-3,14-diol]: in series [1] (oral), the “cold allodynia withdrawal threshold in comparison to the control readings” value is reported as “significant increase” and the “time of peak effect post-administration (cold allodynia)” value is 30 min. For the same molecule, the cold allodynia score entry in series [1] (p.o. 0.01, 0.03, 0.1, 0.3 mg/kg, FIG. 18) is “dose dependent decrease”. Further, in series [2] (1 mg), the dizziness is 46%, the headache is given as 46%, the nausea is recorded as 38% and the oxygen desaturation is recorded as 3%. For the same molecule, in series [2] (1 mg), the vomiting is recorded as 17%. In series [2] (2 mg), the dizziness was 58%, the headache was 29%, the nausea is listed as 46% and the oxygen desaturation is reported as 3%. The vomiting in series [2] (2 mg) is on record as 17%. Further, the mean half-life entry in series [3] (in vivo) is “about 5 hours”. Moreover, in series [3] (widely reported), the oral bioavailability result is listed as “poor”. Also, the cold allodynia score result in series [4] (oral 1, 3, 10, 30 mg/kg, FIG. 20) is given as “dose dependent decrease”. Also, in series [4] (oral), the “cold allodynia withdrawal threshold in comparison to the control readings” value is reported as “significant increase” and the “time of peak effect post-administration (cold allodynia)” value is reported as 30 min. For the same molecule, the “antinociceptive effect, position of the % MPE time-effect curve” value in series [5] (intra-colonic) is recorded as “Top curve”. For the same molecule, in series [5] (intra-gastric), the “antinociceptive effect, position of the % MPE time-effect curve” value was “bottom curve”. For the same molecule, in series [5] (intra-ileal), the “antinociceptive effect, position of the % MPE time-effect curve” value was “second from top curve”.
